US20230278972A1, “SUBSTITUTED HALOALKYL SULFONANILIDE HERBICIDES” (FMC Corporation, priority 2020, published 2023)

How the values were obtained:
Type in all cases: in vivo
[1] = tested on: blackgrass (Alopecurus myosuroides); assay: Test A postemergence, blackgrass; settings: Postemergence
Method in brief: (§1)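 Greenhouse pot test in a loam–sand blend; compounds delivered in a non-phytotoxic solvent carrying a surfactant, applied either as a directed spray to soil at seeding or over seedlings 2 to 10 cm high with one to two leaves.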

[2] = tested on: barnyardgrass (Echinochloa crus-galli); assay: Test A postemergence, barnyardgrass; settings: Postemergence
Method in brief: (§2)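 Preemergence: seeded pots of loam plus sand received a directed soil spray. Postemergence: seedlings at one to two leaves, 2 to 10 cm high, were oversprayed. Each compound was formulated in a non-phytotoxic solvent mix that included a surfactant.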

[3] = tested on: ragweed (common ragweed, Ambrosia artemisiifolia); assay: Test A postemergence, ragweed; settings: Postemergence
Method in brief: as §1

corn (Zea mays) = assay: Test A postemergence, corn; settings: Postemergence
Method in brief: as §1

[4] = tested on: pigweed (Amaranthus retroflexus); assay: Test A preemergence, pigweed; settings: for Plant response rating, Pigweed: 0 to 100 scale (0 no effect, 100 complete control); for Pigweed plant response rating: visual injury on 0 to 100 scale (0 no effect, 100 complete control), approximately 10 days
Method in brief: as §2

[5] = tested on: Foxtail, Giant (giant foxtail, Setaria faberi); assay: Test A preemergence, Foxtail, Giant; settings: Preemergence; for Plant response rating, Foxtail, Giant: 0 to 100 scale (0 no effect, 100 complete control); for Foxtail, Giant plant response rating: visual injury on 0 to 100 scale (0 no effect, 100 complete control), approximately 10 days
Method in brief: as §1

[6] = tested on: Foxtail, Giant (giant foxtail, Setaria faberi); assay: Test A postemergence, Foxtail, Giant; settings: Postemergence
Method in brief: as §1

[7] = tested on: barnyardgrass (Echinochloa crus-galli); assay: Test A preemergence, barnyardgrass; settings: Preemergence; for Plant response rating, Barnyardgrass: 0 to 100 scale (0 no effect, 100 complete control); for Barnyardgrass plant response rating: visual injury on 0 to 100 scale (0 no effect, 100 complete control), approximately 10 days
Method in brief: as §1

kochia (Bassia scoparia) [8] = assay: Test A postemergence, kochia; settings: Postemergence
Method in brief: as §1

kochia (Bassia scoparia) [9] = assay: Test A preemergence, kochia; settings: Preemergence; for Plant response rating, Kochia: 0 to 100 scale (0 no effect, 100 complete control); for Kochia plant response rating: visual injury on 0 to 100 scale (0 no effect, 100 complete control), approximately 10 days
Method in brief: as §1

[10] = tested on: Ryegrass, Italian (Italian ryegrass, Lolium multiflorum); assay: Test A preemergence, Ryegrass, Italian; settings: Preemergence; for Plant response rating, Ryegrass, Italian: 0 to 100 scale (0 no effect, 100 complete control); for Ryegrass, Italian plant response rating: visual injury on 0 to 100 scale (0 no effect, 100 complete control), approximately 10 days
Method in brief: as §1

[11] = tested on: ragweed (common ragweed, Ambrosia artemisiifolia); assay: Test A preemergence, ragweed; settings: Preemergence; for Plant response rating, Ragweed: 0 to 100 scale (0 no effect, 100 complete control); for Ragweed plant response rating: visual injury on 0 to 100 scale (0 no effect, 100 complete control), approximately 10 days
Method in brief: as §1

[12] = tested on: wheat (Triticum aestivum); assay: Test A postemergence, wheat; settings: Postemergence
Method in brief: as §2

[13] = tested on: galium (catchweed bedstraw, Galium aparine); assay: Test A postemergence, galium; settings: Postemergence
Method in brief: as §2

[14] = tested on: Ryegrass, Italian (Italian ryegrass, Lolium multiflorum); assay: Test A postemergence, Ryegrass, Italian; settings: Postemergence
Method in brief: as §1

[15] = tested on: pigweed (Amaranthus retroflexus); assay: Test A postemergence, pigweed; settings: Postemergence
Method in brief: as §1

[16] = 31 g ai/ha, 0 to 100 scale (0 no effect, 100 complete control)
[17] = 125 g ai/ha, visual injury approx. 10 days, 0 to 100 scale (0 no effect, 100 complete control)
[18] = 31 g ai/ha, visual injury on 0 to 100 scale (0 no effect, 100 complete control), approx. 10 days
[19] = 31 g ai/ha, visual injury, approx. 10 days
[20] = 125 g ai/ha, 0 to 100 scale (0 no effect, 100 complete control)
[21] = 500 g ai/ha, visual injury vs untreated controls after approx. 10 days, 0 to 100 scale (0 no effect, 100 complete control)
[22] = 125 g ai/ha, visual injury, approx. 10 days

COC1CCN(C(=O)c2cc(NS(=O)(=O)C(F)(F)F)c(C)cc2C)C1 (stereo not drawn) [Compound 113]
0: Plant response rating, Blackgrass [1, 16] | Plant response rating, Blackgrass [1, 17] | Plant response rating, Corn (corn (Zea mays); [18]) | Plant response rating, Corn (corn (Zea mays); [17]) | Plant response rating, Foxtail, Giant [6, 18] | Plant response rating, Barnyardgrass [7, 19] | Plant response rating, Ryegrass, Italian [10, 19] | Plant response rating, Ragweed [11, 19] | Plant response rating, Wheat [12, 18]
50: Plant response rating, Kochia (kochia (Bassia scoparia) [8]; [17]) | Kochia plant response rating (kochia (Bassia scoparia) [9]; 125 g ai/ha) | Plant response rating, Ryegrass, Italian [14, 17]
10: Plant response rating, Foxtail, Giant [5, 19] | Plant response rating, Kochia (kochia (Bassia scoparia) [8]; [18]) | Plant response rating, Kochia (kochia (Bassia scoparia) [9]; [19])
80: Plant response rating, Barnyardgrass [2, 17] | Plant response rating, Ragweed [3, 18] | Ryegrass, Italian plant response rating ([10]; 125 g ai/ha) | Plant response rating, Galium [13, 17] | Plant response rating, Pigweed [15, 18]
60: Foxtail, Giant plant response rating ([5]; 125 g ai/ha) | Ragweed plant response rating ([11]; 125 g ai/ha)
20: Plant response rating, Barnyardgrass [2, 16] | Barnyardgrass plant response rating ([7]; 125 g ai/ha) | Plant response rating, Wheat [12, 17] | Plant response rating, Ryegrass, Italian [14, 18]
90: Plant response rating, Ragweed [3, 17] | Pigweed plant response rating ([4]; 125 g ai/ha) | Plant response rating, Pigweed [15, 17]
70: Plant response rating, Galium [13, 18]
30: Plant response rating, Pigweed [4, 19] | Plant response rating, Foxtail, Giant [6, 17]

Cc1cc(C)c(N(S(=O)(=O)C(F)(F)F)S(=O)(=O)C(F)(F)F)cc1C1=NOC2(CCCC2)C1 [Compound 208]
0: Plant response rating, Blackgrass [1, 20] | Plant response rating, Barnyardgrass [2, 20] | Plant response rating, Corn (corn (Zea mays); [20]) | Plant response rating, Foxtail, Giant [6, 20] | Plant response rating, Ragweed [11, 22] | Plant response rating, Ragweed ([11]; 500 g ai/ha) | Plant response rating, Wheat [12, 20] | Plant response rating, Ryegrass, Italian [14, 20]
50: Wheat plant response rating [12, 21] | Pigweed plant response rating [15, 21]
100: Plant response rating, Foxtail, Giant ([5]; 500 g ai/ha)
80: Plant response rating, Ryegrass, Italian ([10]; 500 g ai/ha)
20: Blackgrass plant response rating [1, 21] | Plant response rating, Ragweed [3, 20] | Ragweed plant response rating [3, 21] | Corn plant response rating (corn (Zea mays); [21]) | Plant response rating, Pigweed [15, 20]
60: Plant response rating, Pigweed [4, 22]
30: Barnyardgrass plant response rating [2, 21] | Kochia plant response rating (kochia (Bassia scoparia) [8]; [21]) | Plant response rating, Galium [13, 20]
40: Foxtail, Giant plant response rating [6, 21] | Ryegrass, Italian plant response rating [14, 21]
10: Plant response rating, Kochia (kochia (Bassia scoparia) [8]; [20])
70: Plant response rating, Pigweed ([4]; 500 g ai/ha) | Plant response rating, Ryegrass, Italian [10, 22] | Galium plant response rating [13, 21]
90: Plant response rating, Foxtail, Giant [5, 22] | Plant response rating, Barnyardgrass [7, 22] | Plant response rating, Barnyardgrass ([7]; 500 g ai/ha) | Plant response rating, Kochia (kochia (Bassia scoparia) [9]; [22]) | Plant response rating, Kochia (kochia (Bassia scoparia) [9]; 500 g ai/ha)

Cc1cc(C)c(N(S(=O)(=O)C(F)(F)F)S(=O)(=O)C(F)(F)F)cc1C(=O)N1CCC(C#N)CC1 [Compound 161]
90: Kochia plant response rating (kochia (Bassia scoparia) [9]; 125 g ai/ha) | Plant response rating, Ragweed [11, 19] | Ragweed plant response rating ([11]; 125 g ai/ha) | Plant response rating, Galium [13, 20]
0: Plant response rating, Blackgrass [1, 18] | Plant response rating, Blackgrass [1, 20] | Plant response rating, Foxtail, Giant [6, 18] | Plant response rating, Wheat [12, 18] | Plant response rating, Wheat [12, 20]
100: Pigweed plant response rating ([4]; 125 g ai/ha) | Barnyardgrass plant response rating ([7]; 125 g ai/ha) | Ryegrass, Italian plant response rating ([10]; 125 g ai/ha)
10: Plant response rating, Corn (corn (Zea mays); [18]) | Plant response rating, Kochia (kochia (Bassia scoparia) [8]; [18])
80: Plant response rating, Barnyardgrass [2, 20] | Foxtail, Giant plant response rating ([5]; 125 g ai/ha) | Plant response rating, Pigweed [15, 20]
40: Plant response rating, Barnyardgrass [2, 18] | Plant response rating, Ragweed [3, 18] | Plant response rating, Foxtail, Giant [5, 19]
20: Plant response rating, Foxtail, Giant [6, 20] | Plant response rating, Barnyardgrass [7, 19] | Plant response rating, Ryegrass, Italian [14, 18] | Plant response rating, Ryegrass, Italian [14, 20]
30: Plant response rating, Kochia (kochia (Bassia scoparia) [9]; [19]) | Plant response rating, Galium [13, 18]
50: Plant response rating, Corn (corn (Zea mays); [20]) | Plant response rating, Kochia (kochia (Bassia scoparia) [8]; [20])
70: Plant response rating, Ragweed [3, 20] | Plant response rating, Pigweed [4, 19] | Plant response rating, Ryegrass, Italian [10, 19] | Plant response rating, Pigweed [15, 18]
